Tested on: RD
Assay: Cytotoxicity
Assay type: cell-based, human
Settings: read-out: 50% Cytotoxic concentration CC50, line of ma-EV-D68

Cc1cc(-c2noc(C(F)(F)F)n2)ccc1OCCCc1cc(C(=O)N(C)C)no1 [compound 11526092, 3-(3-methyl-4-(3-(3-N,N-dimethylcarbamoyl-isoxazol-5-yl)propoxy)phenyl)-5-trifluoromethyl-1,2,4-oxadiazole]
CC50: 9.4 µM
